Consider four substances from patent US8557958B1, “Compositions and methods for treatment of diabetes” (Tarix Pharmaceuticals Ltd., priority 2012, dated 2013).

Entries after “also recorded” stand apart in the source; their conditions may differ. Bridge positions count the residues as written; N and C are the ends. Ends that are not written are not given here.

One test deals with diabetic mouse model. Particulars: Bindom et al. 2010; cited from earlier work.
The test system of test [1] is streptozotocin (STZ) induced diabetic mouse model. The test is described as follows: Blood glucose in STZ induced diabetic mouse model (Example 2). The conditions noted are these: for Blood Glucose (Mean): 50 μg/kg SC once daily; for Blood glucose levels as compared to vehicle treated group: 50 μg/kg body weight SC for twenty eight days. Format: in vivo, mouse (C57Bl/6). The protocol: C57Bl/6 female mice, 6-7 weeks old were used for the study and conditions were the same as for Example 1 above unless otherwise specified. Following acclimatization, mice were dosed intraperitoneally (IP) with 50 mg/kg STZ solubilized in 0.05 M sodium citrate buffer at a volume of 100 μl per mouse for five consecutive days. Blood Glucose levels were monitored on day 6 post STZ using Accu check glucose meter. Mice were grouped having average blood glucose levels of 200 mg/dL. There were three groups of ten mice each. Mice were dosed subcutaneously with Linear PanCyte (SEQ ID NO:6), PanCyte or vehicle for twenty-eight days. […]
Linear PanCyte and PanCyte were prepared in saline and administrated subcutaneously at a dose volume of 100 μl/mouse daily for twenty-eight days. Dosing solutions were prepared fresh every three days.
The blood glucose level was lowest in the groups treated with PanCyte 50 μg/kg followed by Linear-PanCyte 50 μg/kg.

In another test the test system is adipocytes. The conditions noted are these: administered directly to adipocytes in vitro; Liu, C. et al. 2011; cited from earlier work.
For test [2], the system named is streptozotocin (STZ) induced diabetic mouse model. The test is described as follows: Plasma insulin levels by mouse insulin ELISA in STZ induced diabetic mouse model (Example 1). The format is in vivo, mouse (C57Bl/6). Particulars: for Plasma insulin levels as compared to vehicle treated control: days 14 and 28; for Insulin (Mean): plasma. How it is done:
(§1) Following acclimatization, mice were dosed intraperitoneally (IP) with 50 mg/kg STZ solubilized in 0.05 M sodium citrate at a volume of 100 μl per mouse for five consecutive days. Blood Glucose levels were monitored beginning day 4 post STZ using a glucose meter (Accu-Chek Advantage from Roche). On day six (after five days of STZ injection) mice were grouped into four groups having average blood glucose levels of 200 mg/dL. Two groups were dosed with PanCyte (SEQ ID NO:22) 50 and 500 μg/kg body weight respectively, one group was dosed with TXA-127 (SEQ ID NO:1) 500 ug/kg, and one group was dosed with PBS as vehicle control.
Plasma insulin levels were measured on days 14 and 28 after treatment. Blood samples (approximately 50 to 100 ul) were collected and processed for plasma by centrifugation. Plasma samples were then used for the measurement of insulin levels using a mouse sensitive insulin ELISA kit (ALPCO Diagnostic), according the to manufacturer's instructions.
In general terms: ELISA stands for enzyme-linked immunosorbent assay.

Test [3] has the same test system. The test is described as follows: Blood glucose in STZ induced diabetic mouse model (Example 1). Format: in vivo, mouse (C57Bl/6). Particulars: 50 and 500 μg/kg body weight; monitored 3×/week for 4 weeks post STZ; FIG. 1.
Source text: Streptozotocin is a widely used chemical agent for producing Type-I Diabetes in experimental animals. The chemical is thought to cause Diabetes by direct action on the pancreatic beta cells and inhibits the insulin secretory mechanism. Depending upon the dosing regimen, streptozotocin can cause a mild, moderate, or severe diabetic condition.
C57Bl/6 female, 7-8 weeks old were used for the study. Upon arrival, mice were 6 weeks of age. All the mice were obtained from The Jackson Laboratory, Bar Harbor, Me. 04609, USA.
as §1
Blood glucose was be monitored 3×/week for 4 weeks post STZ. Blood glucose levels was be monitored using a glucose meter by placing a drop of blood directly on to the meter strip, and measuring according to manufacturer's instructions.

Where [4] appears, read: dose 500 μg (500 μg/kg body weight), day 14 after treatment.
Setting [5] is: dose 500 μg (500 μg/kg body weight), day 28 after treatment.

Take D-Ala^7-Ang-(1-7): the “Effect on the decrease in blood glucose and increase in insulin levels seen with ACE2 expression” value in the test with diabetic mouse model was “blocked the decrease in blood glucose”.

Turning to “Asp^1-Arg^2-Val^3-Ser^4-Ile^5-His^6-Cys^7 [Linear-PanCyte] (DRVSIHC; linear)”, the “Blood Glucose (Mean)” value in test [1] (day 1) amounted to 222.8 mg/dL; in test [1] (day 3) it was 202.2 mg/dL; in test [1] (day 5) it was 220.7 mg/dL; in test [1] (day 8), 248.5 mg/dL; in test [1] (day 10) it was 252.1 mg/dL; in test [1] (day 12), 276.1 mg/dL. Besides, the “Blood Glucose (Mean)” value worked out at 278.6 mg/dL in test [1] (day 15); 269.3 mg/dL in test [1] (day 17); 280.7 mg/dL in test [1] (day 19); 266.2 mg/dL in test [1] (day 22); 256.3 mg/dL in test [1] (day 24); 253 mg/dL in test [1] (day 26). Also, the “Blood glucose levels as compared to vehicle treated group” value in test [1] is reported as “Significant differences; also recorded: lowered blood glucose levels significantly”.

Turning to “Asp^1-Arg^2-Val^3-Tyr^4-Ile^5-His^6-Pro^7 [TXA-127]”, the Glucose uptake result in the test with adipocytes is “increased glucose uptake”. Moreover, in test [2] (500 ug/kg weight), the “Plasma insulin levels as compared to vehicle treated control” value is recorded as “significantly higher levels of insulin”. The “Insulin (Mean)” value in test [2] (setting [4]) was found to be 1.097 ng/mL; in test [2] (setting [5]) it was 0.954 ng/mL.

“Asp^1-Arg^2-Val^3-Ser^4-Ile^5-His^6-Cys^7 [PanCyte] (DRVSIHC; bridge 4-7)”: the Blood glucose levels entry in test [3] is listed as “decreased blood glucose levels”. The “Blood Glucose (Mean)” value worked out at 223 mg/dL in test [1] (day 1); 205.3 mg/dL in test [1] (day 3); 197.8 mg/dL in test [1] (day 5); 213.2 mg/dL in test [1] (day 8); 230.7 mg/dL in test [1] (day 10); 234.8 mg/dL in test [1] (day 12). Moreover, the “Blood Glucose (Mean)” value in test [1] (day 15) was 232.5 mg/dL; in test [1] (day 17) it was 240.3 mg/dL; in test [1] (day 19), 230 mg/dL; in test [1] (day 22), 237.1 mg/dL; in test [1] (day 24) it was 237.3 mg/dL; in test [1] (day 26) it was 232.6 mg/dL. For the same substance, the “Blood glucose levels as compared to vehicle treated group” value in test [1] was “Significant differences; also recorded: lowered blood glucose levels significantly”. The “Plasma insulin levels as compared to vehicle treated control” value in test [2] (50 ug/kg weight) and in test [2] (500 ug/kg weight) was “significantly higher levels of insulin” each time. For the same substance, the “Insulin (Mean)” value was found to be 1.217 ng/mL in test [2] (dose 50 μg (50 μg/kg body weight), day 14 after treatment); 1.244 ng/mL in test [2] (dose 50 μg (50 μg/kg body weight), day 28 after treatment); 1.016 ng/mL in test [2] (setting [4]); 0.902 ng/mL in test [2] (setting [5]).
